# “Also recorded” adds a separate entry of the source.
# Key:
# TAMCs = assay: quantitative proteomics and Ingenuity Pathway Analysis of TAMCs (FIG. 2); format: cell-based, mouse
# Experimental: (§1) Immunosuppressive myeloid cell subsets resembling tumor-infiltrating subsets (g-MDSCs, m-MDSCs and TAMs) were differentiated from mouse bone marrow following published procedures using conditioning medium produced by LLC tumor cells stably expressing GMCSF and MCSF cells. g- and m-MDSCs were purified using the myeloid-derived suppressor cell isolation kit (Miltenyi Biotec, Bergisch, Germany) according to manufacturer's recommendations. MDSCs and TAMs were seeded with 500 nM BML-275 or 50 μM oleuropein and incubated for seven days.
# (§2) A unique proteomic experiment was carried out with five biological replicates per sample (m-MDSC, g-MDSC and TAM). Cells were homogenized in a lysis buffer containing 7 M urea, 2 M thiourea 50 mM DTT. The homogenates were spun down at 14000 g for 1 h at 15 °C. Before proteomic analysis, protein extracts were diluted with Laemmli sample buffer in 100 μL and loaded into a 0.75 mm thick polyacrylamide gel with a 4% stacking gel casted over a 12.5% resolving gel. The run was stopped as soon as the front entered 3 mm into the resolving gel so that the whole proteome became concentrated in the stacking/resolving gel interface. Bands were stained with Coomassie Brilliant Blue, excised from the gel and protein enzymatic cleavage was carried out with trypsin (Promega; 1:20, w/w) at 37 °C for 16 h as previously described. Purification and concentration of peptides was performed using C18 Zip Tip Solid Phase Extraction (Millipore).
# (§3) Peptide mixtures were separated by reverse phase chromatography using an UltiMate 3000 UHLPC System (Thermo Scientific) fitted with an Aurora packed emitter column (lonopticks, 25 cm×75 μm ID, 1.6 μm C18). Samples were first loaded for desalting and concentration into an Acclaim PepMap column (ThermoFisher, 0.5 cm×300 μm ID, 5 μm C18) packed with the same chemistry as the separating column. Mobile phases were 100% water 0.1% formic acid (FA) (buffer A) and 100% Acetonitrile 0.1% FA (buffer B). Column gradient was developed in a 120 min two step gradient from 5% B to 20% B in 90 min and 20% B to 32% B in 30 min. Column was equilibrated in 95% B for 10 min and 5% B for 20 min. During the whole process, the precolumn was in line with the column and the flow maintained all along the gradient at 300 nl/min. The column temperature was maintained at 40 °C using an integrated column oven (PRSO-V2, Sonation, Biberach, Germany) and interfaced online with the Orbitrap Exploris 480 MS. Spray voltage were set to 2 kV, funnel RF level at 40, and heated capillary temperature at 300 °C. For DDA experiments full MS resolutions were set to […] at m/z 200 and full MS AGC target was set to Standard with an IT mode Auto. Mass range was set to 375-1500. AGC target value for fragment spectra was set to Standard with a resolution of 15,000 and 3 seconds for cycle time. The intensity threshold was kept at 8E3. Isolation width was set at 1.4 m/z. Normalized collision energy was set at 30%. All data were acquired in centroid mode using positive polarity and peptide match was set to off, and isotope exclusion was on.
# (§4) Raw files were processed with MaxQuant v1.6.17.0 using the integrated Andromeda Search engine. All data were searched against a target/decoy version of the mouse Uniprot Reference Proteome with March 2021 release. First search peptide tolerance was set to 20 ppm, main search peptide tolerance was set to 4.5 ppm. Fragment mass tolerance was set to 20 ppm. Trypsin was specified as enzyme, […] carbamidomethylation of cysteine was specified as fixed modification and peptide N-terminal acetylation, oxidation of methionine, deamidation of asparagine and glutamine and pyro-glutamate formation from glutamine and glutamate were considered variable modifications with a total of two variable modifications per peptide. […]
# m-MDSC = assay: quantitative proteomics and Ingenuity Pathway Analysis of m-MDSC; format: cell-based, mouse
# Experimental: as §1, §2, §3, §4
# TAMs [1] = assay: quantitative proteomics and Ingenuity Pathway Analysis of TAM; format: cell-based, mouse
# Experimental: as §1, §2, §3, §4
# MDSC subsets = assay: abundance of MDSC subsets in vivo; conditions: LXR agonist
# TAMs [2] = assay: morphology of ex vivo TAM cultures, phase contrast micrographs (FIG. 2a); format: cell-based, mouse; conditions: TAMs treated with oleuropein
# Experimental: as §1
# [3] = to elenolic acid and glucose; cited from earlier work
# [4] = IPA, TAMCs, listed as Oleuropein
structure (smiles),measurement,setting,value
C/C=C1/[C@H](O[C@@H]2O[C@H](CO)[C@@H](O)[C@H](O)[C@H]2O)OC=C(C(=O)OC)[C@H]1CC(=O)OCCc1ccc(O)c(O)c1 [oleuropein],CD40,"TAMCs; IPA, TAMCs",down-regulated
same,Fatty acid β-oxidation I signalling,"TAMCs; IPA, TAMCs",up-regulated; also recorded: Regulated expression
same,IL-9 signalling,"TAMCs; IPA, TAMCs",down-regulated
same,LXR/RXR signalling,"TAMCs; IPA, TAMCs",up-regulated; also recorded: Regulated expression
same,RAN signalling,"TAMCs; IPA, TAMCs",down-regulated
same,TREM1,"TAMCs; IPA, TAMCs",inhibition; also recorded: inhibited
same,cyclic adenosine monophosphate (cAMP) pathway,"TAMCs; IPA, TAMCs",inhibition; also recorded: inhibited
same,estrogen signalling,"TAMCs; IPA, TAMCs",downregulated
same,global reprogramming of TAMCs / immunosuppressive pathways,"TAMCs; IPA, TAMCs",major reprogramming of intracellular pathways; also recorded: reprograms the immunosuppressive properties of TAMCs; also recorded: major global reprogramming of TAMCs by deactivating immunosuppressive pathways
same,insulin signalling,"TAMCs; IPA, TAMCs",downregulated
same,"pathways regulating lipid metabolism (Sirtuin, polyamines, PPAR-a/RXR-a)","TAMCs; IPA, TAMCs",altered
same,TREM1,TAMCs; [4],reduced
same,cyclic adenosine monophosphate (cAMP) pathway,TAMCs; [4],down-regulated
same,proteomic profile,"TAMCs; oleuropein-treated vs untreated, FDR<1%",distinct proteomic profiles
same,BAG2 signalling,"m-MDSC; IPA, m-MDSC",activated
same,EIF2 signalling,"m-MDSC; IPA, m-MDSC",activated
same,FAT10 signalling,"m-MDSC; IPA, m-MDSC",down-modulated
same,NRF2-mediated oxidative stress response,"m-MDSC; IPA, m-MDSC",downregulated
same,granzyme A signalling,"m-MDSC; IPA, m-MDSC",activated
same,production of proinflammatory cytokines,"m-MDSC; IPA, m-MDSC",down-modulated
same,sirtuin signalling,"m-MDSC; IPA, m-MDSC",activated
same,upstream regulator PTEN,"m-MDSC; IPA, m-MDSC",increase
same,upstream regulator methylprednisolone,"m-MDSC; IPA, m-MDSC",decrease
same,effect over m-MDSC intracellular regulatory pathways,m-MDSC; m-MDSC,potent effect over m-MDSC intracellular regulatory pathways
same,proteins differentially regulated,"m-MDSC; m-MDSC treated with oleuropein, data not shown",912 proteins
same,activated macrophages and pro-inflammatory activities of macrophages,TAMs [1],enhances
same,BAG2 signalling,TAMs [1]; IPA,downregulated
same,EIF2 signalling,TAMs [1]; IPA,upregulated
same,Flt3 signalling,TAMs [1]; IPA,upregulated
same,For-mediated (Fcr-mediated) phagocytosis signalling,TAMs [1]; IPA,upregulation
same,Hif1a signalling,TAMs [1]; IPA,downregulated
same,fmlp signalling,TAMs [1]; IPA,upregulated
same,immunosuppressive markers,TAMs [1]; IPA,downregulation
same,mTOR signalling,TAMs [1]; IPA,downregulated
same,For-mediated (Fcr-mediated) phagocytosis signalling,"TAMs [1]; IPA, listed as Oleuropein",upregulated
same,abundance of MDSC subsets and of immunosuppressive TME,MDSC subsets,reduced the abundance of MDSC subsets in vivo as well as of immunosuppressive TME
same,morphology / phenotype,TAMs [2],acquired an M1-like phenotype
same,decomposition by acid or enzymic hydrolysis,[3],decomposes easily
